Like-named read-outs stand apart in the source and are kept apart here.
Assays:
[1] = tested on: 22Rv1 cells; experiment: Drug combination study NB with MAPK inhibitors, MTT assay, SynergyFinder 2.0; type: cell-based; settings: Homo sapiens, MTT
Excerpt: Whether activation of MAPKs contribute to cell death or survival depends not only on the cellular context, but also on the nature of the activating stimuli. Thus, to reveal the function of JNK1/2 and p38 in the anticancer effect of NB, we co-treated 22Rv1 cells with NB and specific inhibitors of the above-mentioned MAPKs. […] As MEK1/2 kinase directly and exclusively activates ERK1/2, PD98039 inhibitor is often used as an ERK1/2 inhibitor [38]. Thus, an inactivation of MEK1/2 leads solely to an inhibition of ERK1/2 [38]. Since the inhibitors themselves exert cytotoxic effects in cancer cells, we used a Chou–Talalay method to distinguish between synergism, additive effects, or antagonistic effects of the particular MAPK inhibitor on the compound bioactivity. For this, using an MTT assay, we determined a cytotoxic effect on various concentrations of NB, MAPK inhibitors, and their combinations in 22Rv1 cells. The viability data were further analyzed using the SynergyFinder v. 2.0 software (Network Pharmacology for Precision Medicine in the Research Program of System Oncology, Faculty of Medicine at University of Helsinki, Helsinki, Finland) and a Zero interaction potency (ZIP) reference model (Figure 7).
(§1) The experiments were carried out as previously reported. […] 22Rv1 cells (6 × 10^3 cells/well in 96-well plates) were simultaneously treated with NB and docetaxel; or pretreated with MAPK inhibitors for 1 h following treatment with NB in the total media volume of 100 µL/well. Following 24 h of incubation, the viability of the cells treated with individual drugs as well as their combinations was determined using MTT assay. […] Red areas (positive δ-values) and green areas (negative δ-values) indicate synergism and antagonism, respectively.

[2] = tested on: HeLa cells; design: method as in PMID 28051860; settings: cited from earlier work
[3] = tested on: HEK293; experiment: MTT assay, cell viability; type: cell-based; settings: Homo sapiens, HEK293, 48 h of treatment, mean ± SD
Excerpt: (§2) To examine the anticancer potential and selectivity of NB, we used a panel of six human prostate cancer cell lines, harboring different levels of treatment resistance to representatively reflect the heterogeneity of the disease. […] Additionally, four human noncancer cells lines were utilized in order to determine the selectivity of NB towards prostate cancer cells, i.e., prostate noncancer PNT2 and RWPE-1 cells, human embryonic kidney HEK 293T cells, and human fibroblasts MRC-9. The different cell lines were treated with NB and the cell viability was examined using MTT assay (Figure 1). The mean IC50 of NB and docetaxel (used as a reference substance) in noncancerous cell lines was divided by the mean IC50 in the prostate cancer cell lines to determine the selectivity index (SI).
(§3) The MTT assay was used to monitor the effect of the drugs on cell viability in terms of metabolic activity, as previously reported. First, preincubation of the cells in 96-well plates (6 × 10^3 cells/well in 100 μL/well) was performed overnight in the correspondent culture medium. Next, the medium was exchanged for fresh medium containing the investigated compounds or a vehicle (100 μL/well). Cells were then incubated for 48 h, unless otherwise stated. Then, 10 μL/well of 3-(4,5-dimethylthiazol-2-yl)-2,5-diphenyltetrazolium bromide reagent (MTT, 5 mg/mL) were added. After 2–4 h of additional incubation the media was removed, and the plates were dried. Finally, 50 μL/well of DMSO were added to solve the formed formazan crystals produced by the metabolic active cells and Infinite F200PRO reader (TECAN, Männedorf, Switzerland) was used to measure the cell viability. The results were proceeded with a GraphPad Prism software v.9.1.1 (GraphPad Software, San Diego, CA, USA). Cells treated with the solvent of the drugs alone were used as a control (100% alive cells). The effect of the drugs on cell viability is represented as IC50.

[4] = tested on: VCaP; experiment: MTT assay, cell viability; type: cell-based; settings: Homo sapiens, 48 h of treatment, mean ± SD
Excerpt: as §2, §3

[5] = tested on: MRC-9; experiment: MTT assay, cell viability; type: cell-based; settings: Homo sapiens, MRC9, MRC-9, 48 h of treatment, mean ± SD
Excerpt: as §2, §3

[6] = tested on: RWPE-1; experiment: MTT assay, cell viability; type: cell-based; settings: Homo sapiens, RWPE-1, 48 h of treatment, mean ± SD
Excerpt: as §2, §3

[7] = tested on: 22Rv1; experiment: MTT assay, cell viability; type: cell-based; settings: Homo sapiens, 22Rv1, 48 h of treatment, mean ± SD
Excerpt: as §2, §3

[8] = tested on: PC3; experiment: MTT assay, cell viability; type: cell-based; settings: Homo sapiens, PC-3, PC3, 48 h of treatment, mean ± SD
Excerpt: as §2, §3

[9] = tested on: DU145; experiment: MTT assay, cell viability; type: cell-based; settings: Homo sapiens, DU-145, DU145, 48 h of treatment, mean ± SD
Excerpt: as §2, §3

[10] = tested on: PNT2; experiment: MTT assay, cell viability; type: cell-based; settings: Homo sapiens, PNT2, 48 h of treatment, mean ± SD
Excerpt: as §2, §3

[11] = tested on: PC3-DR; experiment: MTT assay, cell viability; type: cell-based, human; settings: Homo sapiens, PC3-DR, 48 h of treatment, mean ± SD
Excerpt: as §2, §3

[12] = tested on: prostate cancer cells; experiment: MTT assay, mean IC50 in cancer cell panel and selectivity index; type: cell-based, human
Excerpt: as §2, §3

[13] = tested on: PC3-DR cells; settings: PC3-DR vs PC3; cited from earlier work
[14] = tested on: PC3-DR cells; experiment: Drug combination study NB with docetaxel, MTT assay, SynergyFinder 2.0; type: cell-based; settings: Homo sapiens, PC3-DR, NB 0, 24 h, MTT
Method: Thus, drug-resistant PC3-DR cells were treated with docetaxel in combination with NB (Figure 9). Potential synergism between NB and docetaxel was measured by the Chou–Talalay method as described before.
Figure 9 Combinational treatment on PC3-DR cells with NB and docetaxel. […] MTT assay was used to examine cellular viability. Number of replicates n = 3. (A) The heatmap represents cytotoxicity (viability inhibition) of the individual drugs or their combinations. (B,C) To calculate and visualize in 2D (B) or 3D (C) the effect of the drug combination (synergism/additive effect/antagonism), the SynergyFinder v. 2.0 software (Network Pharmacology for Precision Medicine in the Research Program of System Oncology, Faculty of Medicine at University of Helsinki, Helsinki, Finland) and a ZIP reference model were used. Green regions indicate antagonism, white regions refer to additive effect, and red regions indicate synergism.
as §1

[15] = tested on: noncancer cells; experiment: MTT assay, mean IC50 in noncancer cell panel; type: cell-based; settings: Homo sapiens, mean over PNT2, RWPE-1, HEK293, MRC-9, 48 h
Excerpt: as §2
The MTT assay was used to monitor the effect of the drugs on cell viability in terms of metabolic activity, as previously reported. First, preincubation of the cells in 96-well plates (6 × 10^3 cells/well in 100 μL/well) was performed overnight in the correspondent culture medium. Next, the medium was exchanged for fresh medium containing the investigated compounds or a vehicle (100 μL/well). […] Finally, 50 μL/well of DMSO were added to solve the formed formazan crystals produced by the metabolic active cells and Infinite F200PRO reader (TECAN, Männedorf, Switzerland) was used to measure the cell viability. […]

[16] = tested on: 22Rv1 cells; experiment: Annexin-V-FITC/PI double staining, flow cytometry; type: cell-based, human; settings: 22Rv1, zVAD 100 µM 1 h pretreatment, 48 h
Method: Figure 4 Investigation of the proapoptotic activity of NB. Flow cytometry analysis of 22Rv1 cells after 48 h of treatment. (A) Cell cycle and DNA fragmentation analysis. Treated cells were stained with PI and analyzed using a flow cytometry technique. Sub-G1 population was assumed to be apoptotic cells containing fragmentated DNA. (B) Analysis of phosphatidylserine externalization. Treated cells were double-stained with annexin-V-FITC and PI and analyzed using the flow cytometry technique. Cells of the low left quadrant (annexin-V-FITC^−/PI^−) were considered as alive cells. The Cell Quest Pro v.5.2.1 software (BD Bioscience, San Jose, CA, USA) was used to analyze and quantify the FACS data. Cells treated for 48 h with 10 µM of anisomycin were used as a positive control. Number of replicates n = 3. Statistical significance: * p < 0.05 (ANOVA). […]
Externalization of phosphatidylserine is a distinct marker of apoptotic cell death that can be detected by flow cytometry using annexin-V-FITC and propidium iodide (PI) double staining. […] Cells were harvested utilizing trypsin, stained with annexin-V-FITC and propidium iodide, and analyzed using FACS Calibur (BD Bioscience, San Jose, CA, USA).

**Q.** For `Oc1c2ccccc2c2c3c(cccc13)N=N2` [SP600125, reference compound], which inhibition at 12.5 µM ([1]; 22Rv1, inhibitor alone 12.5 μM (NB 0), read-out: Inhibition (%)) is on record?
**A.** -5.92%

**Q.** And the inhibition at 25 µM ([1]; 22Rv1, inhibitor alone 25 μM (NB 0), read-out: Inhibition (%))?
**A.** 0.99%

**Q.** And the inhibition at 50 µM ([1]; 22Rv1, inhibitor alone 50 μM (NB 0), read-out: Inhibition (%))?
**A.** 19.4%

**Q.** And the inhibition at 100 µM ([1]; 22Rv1, inhibitor alone 100 μM (NB 0), read-out: Inhibition (%))?
**A.** 27.5%

**Q.** Which “cytotoxic activity in HeLa cells” value [2] does the source give for `COc1ccc2cc(NC(=O)C3=NO[C@H]4[C@H](O)C=C[C@@H](Cl)[C@@]4(O)C3)c(=O)oc2c1OC` [trichodermamide B] here?
**A.** high cytotoxic activity

**Q.** Which inhibition at 12.5 µM ([1]; 22Rv1, 22Rv1, inhibitor alone 12.5 μM (NB 0)) does the source give for `C[S+]([O-])c1ccc(-c2nc(-c3ccncc3)c(-c3ccc(F)cc3)[nH]2)cc1` (stereo not drawn) [SB203580, reference compound] here?
**A.** 27.6%

**Q.** And the inhibition at 25 µM ([1]; 22Rv1, 22Rv1, inhibitor alone 25 μM (NB 0))?
**A.** 39.7%

**Q.** What about the inhibition at 50 µM ([1]; 22Rv1, 22Rv1, inhibitor alone 50 μM (NB 0)) of the same compound?
**A.** 53.3%

**Q.** What about the inhibition at 100 µM ([1]; 22Rv1, 22Rv1, inhibitor alone 100 μM (NB 0)) of the same compound?
**A.** 63.9%

**Q.** Which IC50 [3] does the source give for `CC(=O)O[C@@]12CO[C@@H]1C[C@H](O)[C@@]1(C)C(=O)[C@H](O)C3=C(C)[C@@H](OC(=O)[C@H](O)[C@@H](NC(=O)OC(C)(C)C)c4ccccc4)C[C@@](O)([C@@H](OC(=O)c4ccccc4)[C@H]21)C3(C)C` [Docetaxel, docetaxel, reference compound] here?
**A.** 11.5 ± 3.22 nM

**Q.** What about the IC50 [4] of the same compound?
**A.** 0.23 ± 0.22 nM

**Q.** And the IC50 [5]?
**A.** > 500 nM

**Q.** And the IC50 [6]?
**A.** 0.42 ± 0.23 nM

**Q.** What about the IC50 [7] of the same compound?
**A.** 0.6 ± 0.12 nM

**Q.** What about the IC50 [8] of the same compound?
**A.** 7.49 ± 7.09 nM

**Q.** And the IC50 [9]?
**A.** 2.2 ± 0.6 nM

**Q.** And the IC50 [10]?
**A.** > 500 nM

**Q.** What about the IC50 [11] of the same compound?
**A.** 325 ± 21.7 nM

**Q.** And the IC50 ([12]; Homo sapiens, mean over PC3, PC3-DR, DU145, 22Rv1, VCaP, LNCaP, 48 h, MTT)?
**A.** 56.8 nM

**Q.** And the “Selectivity Index (SI)” value ([12]; [mean IC50 in noncancer cells]/[mean IC50 in cancer cells])?
**A.** 4.5

**Q.** And the “fold less sensitivity of PC3-DR compared to parental cell line” value [13]?
**A.** ~ 50 fold

**Q.** What about the “fold more resistant compared to the parental cell line PC3” value [13] of the same compound?
**A.** ~ 50 fold

**Q.** And the inhibition at 0.00625 µM ([14]; docetaxel 6.25 nM)?
**A.** 8.64%

**Q.** And the inhibition at 0.025 µM ([14]; docetaxel 25 nM)?
**A.** 18.7%

**Q.** And the inhibition at 0.1 µM ([14]; docetaxel 100 nM)?
**A.** 31%

**Q.** And the inhibition at 0.4 µM ([14]; docetaxel 400 nM)?
**A.** 58.8%

**Q.** And the IC50 [15]?
**A.** 253 nM

**Q.** For `COc1ccc(C[C@H]2NC[C@H](O)[C@H]2OC(C)=O)cc1` [Anisomycin, anisomycin, reference compound], which “effect of pretreatment with pan-caspase inhibitor zVAD on drug-induced cell death” value [16] is on record?
**A.** strongly inhibited

**Q.** With `COc1ccc2cc(NC(=O)C3=NO[C@H]4[C@H](O)C=C[C@@H](O)[C@@]4(O)C3)c(=O)oc2c1OC` [trichodermamide A] as the compound, how does the “cytotoxic activity in HeLa cells” value [2] read?
**A.** inactive

**Q.** For `COc1ccc2cc(N(C)C(=O)C3=NO[C@H]4[C@H](O)C=C[C@@H](O)[C@@]4(O)C3)c(=O)oc2c1OC` [trichodermamide C], which “cytotoxic activity in HeLa cells” value [2] is on record?
**A.** inactive

From publication PMC9605374 (Marine Drugs, 2022)
